One assay addresses ATR/ATRIP complex (Homo sapiens (Human), UniProt Q13535). In words: ATR/ATRIP enzymatic assay (Caliper-based). In kind it is biochemical. Conditions: FAM-labeled RAD17 peptide, ATP; read-out: ATR/ATRIP Enzyme IC50. The method, then: Human full-length FLAG-TEV-ATR and His6-ATRIP were co-expressed in HEK293 cells. […] The sample was loaded into a column, and then washed with buffer A three times. Protein was subsequently eluted with 2 ml of buffer B (buffer A+200 μg/ml 3×FLAG peptide).
The ability of new chemical matter to inhibit the ATR catalytic activity in this ATR/ATRIP complex was assessed using a Caliper-based assay. A 2× enzyme solution (i.e., 4 nM enzyme) was prepared using 1× Kinase Reaction Buffer (25 mM HEPES pH 8, 0.0055% Brij-35, 10 mM MnCl2, and 1 mM DTT). […] 10 μL of the 2× enzyme solution was transferred to an assay plate containing 60 nL of test compound (from a 3× serial dilution) in 100% DMSO. Following a 30 minute incubation at 28° C., 10 μL of the 2× peptide solution was then transferred to the same assay plate. The reaction was allowed to incubate at 28° C. for 6 hours. After adding […] of stop buffer (100 mM HEPES pH 7.5, 0.015% Brij-35, 0.2% Coating-3 Reagent (PerkinElmer, catalog # PN760050), and 50 mM EDTA), data were collected on a Caliper instrument. Conversion values were converted to inhibition values via the following equation: % inhibition=(max−conversion)/(max−min)*100, whereby “max” corresponds to the DMSO control and “min” corresponds to the low control. IC50 values were calculated using the following equation in XLFit: Y=Bottom+(Top−Bottom)/1+(IC50/X)^HillSlope).

Assay [1] relates to ATR-driven phosphorylation of Chk1 kinase at Serine 345 in HT-29 cells. Put plainly: pCHK1 cellular assay (CHK1 p-Ser345 AlphaScreen SureFire). Conditions: Homo sapiens, HT-29, read-out: pCHK1 Cell IC50. In general terms: Alpha assays give light when donor and acceptor beads are brought close together.
Description: The microplate was incubated overnight (approximately 20 hours) at 37° C. with 5% CO2 and ambient 02. Stock solutions of the test compounds were prepared in 100% DMSO (Sigma, Catalog # D2650) and serially diluted 1:3 using 100% DMSO. Compounds were additionally diluted 1:33 in culture medium, and 10 ul/well were transferred to the tissue culture plate. Following the compound addition the microplate was incubated at 37° C. for 90 minutes. […] The cells were then washed with PBS and lysed using 10 uL/well […] ® Kit lysis buffer diluted to 1× in water (PerkinElmer Catalog # TGRCHK1S50K), with mixing on an orbital shaker at 500 rpm for 20 min at RT. Lysates were frozen at −20° C. overnight.
The pCHK1 ALPHASCREEN® signal was measured using an ENVISION® plate reader (PerkinElmer). IC50 values were calculated using a four-parameter logistic curve fit using Genedata Screener software. Percent of control for each compound concentration was calculated by the following formula: 100*(Compound-Min)/(Max-Min) where “Max” is the high control, DMSO, and “Min” is the low control, 5 uM ATR inhibitor.

Our source for the IC50 values is US10800774B2, “Heterocyclic inhibitors of ATR kinase” (Board of Regents, The University of Texas System, priority 2017, dated 2020).

Molecules are shown by their SMILES. pIC50: −log10 of the molar value.

Chain of ATR/ATRIP complex (Q13535 whole entry): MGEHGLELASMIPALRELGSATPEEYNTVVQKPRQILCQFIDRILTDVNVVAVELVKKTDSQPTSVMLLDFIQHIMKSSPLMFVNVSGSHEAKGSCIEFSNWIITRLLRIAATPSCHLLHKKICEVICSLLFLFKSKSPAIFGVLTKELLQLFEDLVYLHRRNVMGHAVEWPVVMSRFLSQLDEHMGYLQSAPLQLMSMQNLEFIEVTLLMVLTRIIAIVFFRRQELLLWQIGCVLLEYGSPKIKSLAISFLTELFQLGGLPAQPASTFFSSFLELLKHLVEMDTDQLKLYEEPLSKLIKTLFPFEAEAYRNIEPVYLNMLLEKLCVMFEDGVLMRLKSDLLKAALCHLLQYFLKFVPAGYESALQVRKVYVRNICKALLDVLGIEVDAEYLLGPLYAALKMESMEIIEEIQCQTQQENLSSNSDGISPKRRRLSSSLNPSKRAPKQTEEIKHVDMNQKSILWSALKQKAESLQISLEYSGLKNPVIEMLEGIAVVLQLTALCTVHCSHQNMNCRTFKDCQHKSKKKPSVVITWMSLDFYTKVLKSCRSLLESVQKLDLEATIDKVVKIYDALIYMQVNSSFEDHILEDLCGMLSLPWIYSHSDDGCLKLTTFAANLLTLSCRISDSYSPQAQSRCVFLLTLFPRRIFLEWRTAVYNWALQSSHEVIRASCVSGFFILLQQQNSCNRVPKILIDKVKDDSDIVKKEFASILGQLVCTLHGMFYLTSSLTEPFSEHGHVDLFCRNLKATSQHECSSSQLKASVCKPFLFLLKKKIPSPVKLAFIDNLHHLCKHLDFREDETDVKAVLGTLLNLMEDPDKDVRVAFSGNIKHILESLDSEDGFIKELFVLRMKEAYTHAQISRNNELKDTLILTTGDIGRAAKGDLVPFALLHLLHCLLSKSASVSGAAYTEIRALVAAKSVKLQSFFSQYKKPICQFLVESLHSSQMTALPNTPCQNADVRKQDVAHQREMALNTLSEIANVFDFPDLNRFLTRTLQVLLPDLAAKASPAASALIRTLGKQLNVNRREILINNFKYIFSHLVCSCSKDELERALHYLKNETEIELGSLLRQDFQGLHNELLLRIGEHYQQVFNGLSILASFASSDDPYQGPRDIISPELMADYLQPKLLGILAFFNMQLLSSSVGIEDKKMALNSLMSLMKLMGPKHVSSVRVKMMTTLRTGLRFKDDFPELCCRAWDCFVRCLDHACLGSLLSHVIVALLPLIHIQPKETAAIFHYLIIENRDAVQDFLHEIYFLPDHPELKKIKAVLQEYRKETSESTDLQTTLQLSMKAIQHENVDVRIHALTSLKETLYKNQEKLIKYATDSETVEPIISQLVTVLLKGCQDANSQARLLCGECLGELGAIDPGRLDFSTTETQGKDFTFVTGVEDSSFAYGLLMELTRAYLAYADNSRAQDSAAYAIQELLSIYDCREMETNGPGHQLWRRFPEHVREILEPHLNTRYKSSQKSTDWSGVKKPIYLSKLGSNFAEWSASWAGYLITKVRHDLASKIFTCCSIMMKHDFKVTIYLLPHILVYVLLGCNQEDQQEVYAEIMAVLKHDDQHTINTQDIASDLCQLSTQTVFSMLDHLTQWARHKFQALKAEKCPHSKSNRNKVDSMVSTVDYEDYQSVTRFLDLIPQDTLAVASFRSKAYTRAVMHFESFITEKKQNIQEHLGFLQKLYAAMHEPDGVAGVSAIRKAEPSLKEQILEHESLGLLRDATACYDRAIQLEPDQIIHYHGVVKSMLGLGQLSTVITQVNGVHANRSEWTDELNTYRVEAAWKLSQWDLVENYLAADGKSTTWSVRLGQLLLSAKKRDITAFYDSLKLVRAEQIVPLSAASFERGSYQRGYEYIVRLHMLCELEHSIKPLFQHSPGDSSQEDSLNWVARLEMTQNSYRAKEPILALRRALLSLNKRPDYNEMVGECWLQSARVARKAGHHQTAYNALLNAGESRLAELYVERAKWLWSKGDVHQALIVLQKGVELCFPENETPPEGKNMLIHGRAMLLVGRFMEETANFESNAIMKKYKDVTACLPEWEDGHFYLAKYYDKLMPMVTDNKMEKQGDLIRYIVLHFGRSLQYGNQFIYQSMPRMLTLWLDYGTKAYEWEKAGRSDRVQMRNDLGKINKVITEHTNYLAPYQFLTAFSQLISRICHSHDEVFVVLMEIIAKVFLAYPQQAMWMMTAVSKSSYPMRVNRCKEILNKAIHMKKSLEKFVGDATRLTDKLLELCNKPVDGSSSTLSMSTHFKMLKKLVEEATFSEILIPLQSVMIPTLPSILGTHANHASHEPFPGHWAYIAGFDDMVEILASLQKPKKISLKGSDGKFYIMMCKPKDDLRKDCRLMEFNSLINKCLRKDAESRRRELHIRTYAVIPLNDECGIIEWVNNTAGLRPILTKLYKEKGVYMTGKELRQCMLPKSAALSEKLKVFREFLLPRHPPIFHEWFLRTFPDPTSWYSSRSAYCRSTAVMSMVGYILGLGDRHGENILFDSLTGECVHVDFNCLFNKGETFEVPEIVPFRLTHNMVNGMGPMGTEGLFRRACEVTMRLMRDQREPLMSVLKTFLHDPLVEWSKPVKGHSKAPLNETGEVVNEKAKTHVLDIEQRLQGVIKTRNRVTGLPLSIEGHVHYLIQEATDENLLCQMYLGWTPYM
Chain of ATR/ATRIP complex (Q8WXE1 whole entry partner): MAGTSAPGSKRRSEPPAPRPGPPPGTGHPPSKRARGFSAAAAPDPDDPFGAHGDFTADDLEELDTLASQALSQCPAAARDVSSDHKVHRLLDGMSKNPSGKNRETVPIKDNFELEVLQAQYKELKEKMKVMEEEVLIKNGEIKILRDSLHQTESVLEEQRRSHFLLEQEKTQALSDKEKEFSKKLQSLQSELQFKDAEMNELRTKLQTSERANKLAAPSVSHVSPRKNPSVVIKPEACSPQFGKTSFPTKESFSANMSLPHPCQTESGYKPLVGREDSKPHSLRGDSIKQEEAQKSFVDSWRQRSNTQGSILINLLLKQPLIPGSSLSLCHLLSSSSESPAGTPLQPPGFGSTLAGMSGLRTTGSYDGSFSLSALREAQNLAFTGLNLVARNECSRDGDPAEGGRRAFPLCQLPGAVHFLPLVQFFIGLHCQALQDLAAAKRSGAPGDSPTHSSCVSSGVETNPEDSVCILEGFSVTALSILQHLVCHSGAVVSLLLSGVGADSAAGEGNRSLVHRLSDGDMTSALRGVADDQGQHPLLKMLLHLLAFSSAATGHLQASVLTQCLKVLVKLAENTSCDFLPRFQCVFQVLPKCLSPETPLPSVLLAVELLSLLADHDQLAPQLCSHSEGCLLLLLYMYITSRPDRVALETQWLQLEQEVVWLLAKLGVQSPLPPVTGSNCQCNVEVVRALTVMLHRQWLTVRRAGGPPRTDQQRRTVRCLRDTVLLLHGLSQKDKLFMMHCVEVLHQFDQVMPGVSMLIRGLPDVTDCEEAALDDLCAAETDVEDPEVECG

Take `CCN1CCCN(c2cc(N3CCOC[C@H]3C)nc(-c3ccnc4[nH]ccc34)n2)S1(=O)=O` [Example 1, (R)-2-Ethyl-6-(6-(3-methylmorpholino)-2-(1H-pyrrolo[2,3-b]pyridin-4-yl)pyrimidin-4-yl)-1,2,6-thiadiazinane 1,1-dioxide]: the pIC50 at ATR/ATRIP complex was 8.15; in assay [1], 7.02.
The like results for `C[C@@H]1COCCN1c1cc(C2CCN(C)C2=O)nc(-c2ccnc3[nH]ccc23)n1` (stereo partly drawn) [Example 3, 1-Methyl-3-(6-((R)-3-methylmorpholino)-2-(1H-pyrrolo[2,3-b]pyridin-4-yl)pyrimidin-4-yl)pyrrolidin-2-one] were, in that order, 7.32 and 6.30.
The like results for `C[C@@H]1COCCN1c1cc(N2CCCN(C)S2(=O)=O)nc(-c2cc(Cl)nc3[nH]ccc23)n1` [Example 6, (R)-2-(2-(6-Chloro-1H-pyrrolo[2,3-b]pyridin-4-yl)-6-(3-methylmorpholino)pyrimidin-4-yl)-6-methyl-1,2,6-thiadiazinane 1,1-dioxide] were, in that order, 7.28 and 6.30.
For the compound `CC(C)OC(=O)N1CCC(c2cc(N3CCOC[C@H]3C)nc(-c3ccnc4[nH]ccc34)n2)CC1` [Example 27, Propan-2-yl 4-{6-[(3R)-3-methylmorpholin-4-yl]-2-{1H-pyrrolo[2,3-b]pyridin-4-yl}pyrimidin-4-yl}piperidine-1-carboxylate], the pIC50 on ATR/ATRIP complex was 7.82; in assay [1] it was 6.39.
The like results for `CNC(=O)N1CCC(c2cc(N3CCOC[C@H]3C)nc(-c3ccnc4[nH]ccc34)n2)C1` (stereo partly drawn) [Example 18, N-methyl-3-{6-[(3R)-3-methylmorpholin-4-yl]-2-{1H-pyrrolo[2,3-b]pyridin-4-yl}pyrimidin-4-yl}-pyrrolidine-1-carboxamide] were, in that order, 7.85 and 6.72.
On to `C[C@@H]1COCCN1c1cc(C2CCCCS2(=O)=O)nc(-c2ccnc3[nH]ccc23)n1` (stereo partly drawn) [Example 26, 2-{6-[(3R)-3-Methyl-morpholin-4-yl]-2-{1H-pyrrolo[2,3-b]pyridin-4-yl}pyrimidin-4-yl}-1λ^6-thiane-1,1-dione], for which the pIC50 on ATR/ATRIP complex was 8.10; in assay [1], 7.07.
The like results for `CC(=O)N1CCC(c2cc(N3CCOC[C@H]3C)nc(-c3ccnc4[nH]ccc34)n2)C1` (stereo partly drawn) [Example 16, 1-(3-{6-[(3R)-3-Methyl-morpholin-4-yl]-2-{1H-pyrrolo[2,3-b]pyridin-4-yl}-pyrimidin-4-yl}pyrrolidin-1-yl) ethan-1-one] were, in that order, 7.72 and 6.62.
`C[C@@H]1COCCN1c1cc(C2CCN(C(=O)C3CC3)CC2)nc(-c2ccnc3[nH]ccc23)n1` [Example 21, (3R)-4-[6-(1-Cyclopropanecarbonylpiperidin-4-yl)-2-{1H-pyrrolo[2,3-b]pyridin-4-yl}pyrimidin-4-yl]-3-methylmorpholine]: the pIC50 on ATR/ATRIP complex is 7.66; in assay [1] it was 7.09.
Regarding `CCC(=O)N1CCC(c2cc(N3CCOC[C@H]3C)nc(-c3ccnc4[nH]ccc34)n2)CC1` [Example 20, 1-(4-{6-[(3R)-3-Methylmorpholin-4-yl]-2-{1H-pyrrolo[2,3-b]pyridin-4-yl}pyrimidin-4-yl}piperidin-1-yl) propan-1-one], the pIC50 on ATR/ATRIP complex is 7.82; in assay [1], 7.29.
The like results for `CCN1CCCN(c2cc(N3CCOC[C@H]3C)nc(-c3cc(Cl)nc4[nH]ccc34)n2)S1(=O)=O` [Example 9, 2-(2-{6-Chloro-1H-pyrrolo[2,3-b]pyridin-4-yl}-6-[(3R)-3-methylmorpholin-4-yl]pyrimidin-4-yl)-6-ethyl-1λ^6,2,6-thiadiazinane-1,1-dione] were, in that order, 6.94 and 6.24.
The like results for `CC(=O)N1CCC(c2cc(N3CCOC[C@H]3C)nc(-c3ccnc4[nH]ccc34)n2)CC1` [Example 12, 1-(4-{6-[(3R)-3-Methylmorpholin-4-yl]-2-{1H-pyrrolo[2,3-b]pyridin-4-yl}pyrimidin-4-yl}piperidin-1-yl) ethan-1-one] were, in that order, 7.62 and 6.89.
The like results for `C[C@@H]1COCCN1c1cc(C2CCOCC2)nc(-c2ccnc3[nH]ccc23)n1` [Example 14, (3R)-3-Methyl-4-[6-(oxan-4-yl)-2-{1H-pyrrolo[2,3-b]-pyridin-4-yl}pyrimidin-4-yl]-morpholine] were, in that order, 7.77 and 6.78.
Regarding `C[C@@H]1COCCN1c1cc(C2CCN(S(=O)(=O)C3CC3)CC2)nc(-c2ccnc3[nH]ccc23)n1` [Example 23, (3R)-4-{6-[1-(Cyclopropane-sulfonyl)piperidin-4-yl]-2-{1H-pyrrolo[2,3-b]pyridin-4-yl}pyrimidin-4-yl}-3-methylmorpholine], the pIC50 was 8.30 on ATR/ATRIP complex and 7.68 in assay [1].
The like results for `C[C@@H]1COCCN1c1cc(C2CCN(S(C)(=O)=O)C2)nc(-c2ccnc3[nH]ccc23)n1` (stereo partly drawn) [Example 11, (3R)-4-[6-(1-Methane-sulfonylpyrrolidin-3-yl)-2-{1H-pyrrolo[2,3-b]pyridin-4-yl}pyrimidin-4-yl]-3-methylmorpholine] were, in that order, 8.10 and 7.01.
With `CC(C)N1CCCN(c2cc(N3CCOC[C@H]3C)nc(-c3ccnc4[nH]ccc34)n2)S1(=O)=O` [Example 8, 2-{6-[(3R)-3-Methylmorpholin-4-yl]-2-{1H-pyrrolo[2,3-b]pyridin-4-yl}pyrimidin-4-yl}-6-(propan-2-yl)-1λ^6,2,6-thiadiazinane-1,1-dione], the pIC50 is 8.15 on ATR/ATRIP complex and 6.52 in assay [1].
The like results for `C[C@@H]1COCCN1c1cc(C2CCCN(S(C)(=O)=O)C2)nc(-c2ccnc3[nH]ccc23)n1` (stereo partly drawn) [Example 10, (3R)-4-[6-(1-Methane-sulfonylpiperidin-3-yl)-2-{1H-pyrrolo[2,3-b]pyridin-4-yl}pyrimidin-4-yl]-3-methylmorpholine] were, in that order, 8.15 and 6.87.
The like results for `C[C@@H]1COCCN1c1cc([C@@]2(C)CCCS2(=O)=O)nc(-c2ccnc3[nH]ccc23)n1` [Example 30b, (R)-2-methyl-2-(6-((R)-3-methylmorpholino)-2-(1H-pyrrolo[2,3-b]pyridin-4-yl)pyrimidin-4-yl)tetrahydrothiophene 1,1-dioxide] were, in that order, 8.22 and 6.97.
On to `CCOC(=O)N1CCC(c2cc(N3CCOC[C@H]3C)nc(-c3ccnc4[nH]ccc34)n2)CC1` [Example 22, Ethyl 4-{6-[(3R)-3-methylmorpholin-4-yl]-2-{1H-pyrrolo[2,3-b]pyridin-4-yl}pyrimidin-4-yl} piperidine-1-carboxylate], for which the results for the pIC50 (on ATR/ATRIP complex; in assay [1]) were 7.82 and 6.96, respectively.
Take `C[C@@H]1COCCN1c1cc(C2(C)CCCS2(=O)=O)nc(-c2ccnc3[nH]ccc23)n1` (stereo partly drawn) [Example 29, 2-Methyl-2-(6-((R)-3-methylmorpholino)-2-(1H-pyrrolo[2,3-b]pyridin-4-yl)pyrimidin-4-yl)tetrahydrothiophene 1,1-dioxide]: the figures for the pIC50 (at ATR/ATRIP complex; in assay [1]) were 8.10 and 7.05, respectively.
The like results for `COC(=O)N1CCC(c2cc(N3CCOC[C@H]3C)nc(-c3ccnc4[nH]ccc34)n2)C1` (stereo partly drawn) [Example 17, Methyl 3-{6-[(3R)-3-methylmorpholin-4-yl]-2-{1H-pyrrolo[2,3-b]pyridin-4-yl}pyrimidin-4-yl}-pyrrolidine-1-carboxylate] were, in that order, 8.00 and 6.86.
The like results for `C[C@@H]1COCCN1c1cc([C@]2(C)CCCS2(=O)=O)nc(-c2ccnc3[nH]ccc23)n1` [Example 30a, (S)-2-methyl-2-(6-((R)-3-methylmorpholino)-2-(1H-pyrrolo[2,3-b]pyridin-4-yl)pyrimidin-4-yl)tetrahydrothiophene 1,1-dioxide] were, in that order, 8.22 and 7.12.
The like results for `C[C@@H]1COCCN1c1cc(C2CCN(C(=O)CC3CC3)CC2)nc(-c2ccnc3[nH]ccc23)n1` [Example 25, 2-Cyclopropyl-1-(4-{6-[(3R)-3-methylmorpholin-4-yl]-2-{1H-pyrrolo[2,3-b]pyridin-4-yl}pyrimidin-4-yl}piperidin-1-yl) ethan-1-one] were, in that order, 7.80 and 6.86.
`C[C@@H]1COCCN1c1cc(C2CCCN(C)C2=O)nc(-c2ccnc3[nH]ccc23)n1` (stereo partly drawn) [Example 19, 1-Methyl-3-{6-[(3R)-3-methylmorpholin-4-yl]-2-{1H-pyrrolo[2,3-b]pyridin-4-yl}pyrimidin-4-yl} piperidin-2-one]: the figures for the pIC50 (on ATR/ATRIP complex; in assay [1]) were 7.33 and 6.04, respectively.
`C[C@@H]1COCCN1c1cc(C2CCN(C(=O)OCC3CC3)CC2)nc(-c2ccnc3[nH]ccc23)n1` [Example 28, Cyclopropylmethyl 4-{6-[(3R)-3-methylmorpholin-4-yl]-2-{1H-pyrrolo[2,3-b]-pyridin-4-yl}pyrimidin-4-yl}piperidine-1-carboxylate]: the pIC50 on ATR/ATRIP complex is 7.77; in assay [1] it was 6.57.
The like results for `C[C@@H]1COCCN1c1cc(C2CCCS2(=O)=O)nc(-c2cc(Cl)nc3[nH]ccc23)n1` (single isomer, unassigned) [Example 5a] were, in that order, 7.51 and 6.75.
